Reference: patent US11535613B2 (GUANGDONG RAYNOVENT BIOTECH CO., LTD., priority 2018, dated 2022)

Tests used:
[1] = Solid stability test of crystal forms (high temperature, high humidity, light radiation, accelerated conditions; appearance, content, impurities, crystal form by XRPD); type: physicochemical; conditions: for change of crystal form (XRPD detection): after the solid stability test conditions; for XPRD: crystal form found
Text: High Performance Liquid Chromatograph (HPLC) The analytic method is as follows: [table] [table] […] The sample was placed under high temperature, high humidity and acceleration conditions. The bottle was sealed with an aluminum foil, and some small holes were pierced on the aluminum foil to ensure that the sample could fully contact with the ambient air. The sample placed under light radiation was placed upright at room temperature and open to the air. The sample was exposed to a light source, and radiated with sufficient energy prior to taking samples for detection. Samples were taken at various time points for analysis, and the detection results were compared with the initial detection results obtained at Day 0. The investigation items include appearance, content and impurities. […] The sample was placed under high temperature, high humidity and acceleration conditions. The bottle was sealed with an aluminum foil, and some small holes were pierced on the aluminum foil to ensure that the sample could fully contact with the ambient air. The sample placed under light radiation was placed upright at room temperature and open to the air. The sample was exposed to a light source, and radiated with sufficient energy prior to taking samples for detection. Samples were taken at various time points for analysis, and the detection results were compared with the initial detection results obtained at Day 0. The investigation items include appearance, content and impurities. […] Samples were taken at various time points, and the test results were compared with the initial test results obtained at Day 0. […] The investigation items include appearance, impurities, and crystal forms.

[2] = test system: Influenza virus A/Weiss/43 (H1N1) strain; test: Influenza virus cytopathy (CPE) experiment; type: cell-based
[3] = test system: Influenza A virus H1N1 (H1N1 A/WSN/33 virus); test: Influenza A virus H1N1 mouse infection model (in vivo drug efficacy); conditions: H1N1 A/WSN/33 infected BALB/c mice, 10 mg/kg oral twice a day Day 1 to Day 7, first dose 36 hr after infection
[4] = Acceleration test (40° C./relative humidity 75%, open), Day 5
[5] = Acceleration test (40° C./relative humidity 75%, open), Day 12
[6] = High humidity (room temperature/relative humidity 92.5%, open), Day 5
[7] = High humidity (room temperature/relative humidity 92.5%, open), Day 12
[8] = High temperature (60° C., open), Day 5
[9] = High temperature (60° C., open), Day 12
[10] = Light radiation (total illumination 1.2 × 10^6 Lux · hr), Day 5
[11] = Light radiation (total illumination 1.2 × 10^6 Lux · hr), Day 12
[12] = high temperature, high humidity, light radiation and accelerated experiments
[13] = high temperature, high humidity and accelerated experiments
[14] = High humidity (room temperature/relative humidity 92.5%, open), Day 10
[15] = High temperature (60° C., open), Day 10
[16] = Light radiation (total illumination 1.2 × 10^6 Lux · hr), Day 10
[17] = Acceleration test (40° C./relative humidity 75%, open), Day 30
[18] = High humidity (room temperature/relative humidity 92.5%, open), Day 30
[19] = High temperature (60° C., open), Day 30
[20] = Acceleration test (40° C./relative humidity 75%, open), Day 10

O=C(O)[C@H]1C2CCC(CC2)[C@@H]1Nc1nc(-c2n[nH]c3ncc(F)cc23)nc(C2CC2)c1F [crystal form D]
Appearance [1, 4]: Off-white solid | Appearance [1, 5]: Off-white solid | Total Impurities (%) [1, 5]: 3.5% | Appearance ([1]; Day 0 (initial)): Off-white solid | Total Impurities (%) ([1]; Day 0 (initial)): 3.3% | Appearance [1, 6]: Off-white solid | Appearance [1, 7]: Off-white solid | Total Impurities (%) [1, 7]: 3.4% | Appearance [1, 8]: Off-white solid | Appearance [1, 9]: Off-white solid | Total Impurities (%) [1, 9]: 3.3% | Appearance [1, 10]: Off-white solid | Appearance [1, 11]: Off-white solid | Total Impurities (%) [1, 11]: 3.4% | change of crystal form (XRPD detection) [1]: does not change | XPRD [1, 5]: Crystal form D | XPRD ([1]; Day 0 (initial)): Crystal form D | XPRD [1, 7]: Crystal form D | XPRD [1, 9]: Crystal form D | XPRD [1, 11]: Crystal form D | change in total impurity content [1, 12]: almost no change

O=C(O)[C@H]1C2CCC(CC2)[C@@H]1Nc1nc(-c2n[nH]c3ncc(F)cc23)nc(C2CC2)c1F [crystal form F]
Appearance [1, 4]: Off-white solid | Appearance [1, 5]: Off-white solid | Total Impurities (%) [1, 5]: 1.9% | Appearance ([1]; Day 0 (initial)): Off-white solid | Total Impurities (%) ([1]; Day 0 (initial)): 1.7% | Appearance [1, 6]: Off-white solid | Appearance [1, 7]: Off-white solid | Total Impurities (%) [1, 7]: 1.9% | Appearance [1, 8]: Off-white solid | Appearance [1, 9]: Off-white solid | Total Impurities (%) [1, 9]: 1.9% | Appearance [1, 10]: Off-white solid | Appearance [1, 11]: Off-white solid | Total Impurities (%) [1, 11]: 1.8% | change of crystal form (XRPD detection) [1]: does not change | XPRD [1, 5]: Crystal form F | XPRD ([1]; Day 0 (initial)): Crystal form F | XPRD [1, 7]: Crystal form F | XPRD [1, 9]: Crystal form F | XPRD [1, 11]: Crystal form F | change in total impurity content [1, 13]: almost no change

O=C(O)[C@H]1C2CCC(CC2)[C@@H]1Nc1nc(-c2n[nH]c3ncc(F)cc23)nc(C2CC2)c1F (single isomer, unassigned) [crystal form B]
Appearance ([1]; Day 0 (initial)): Off-white | Content (%) ([1]; Day 0 (initial)): 98.89% | Total Impurities (%) ([1]; Day 0 (initial)): 1.11% | Appearance [1, 6]: Off-white | Content (%) [1, 6]: 98.92% | Total Impurities (%) [1, 6]: 1.08% | Appearance [1, 14]: Off-white | Content (%) [1, 14]: 98.90% | Total Impurities (%) [1, 14]: 1.10% | Appearance [1, 8]: Off-white | Content (%) [1, 8]: 98.91% | Total Impurities (%) [1, 8]: 1.09% | Appearance [1, 15]: Off-white | Content (%) [1, 15]: 98.89% | Total Impurities (%) [1, 15]: 1.11% | Appearance [1, 10]: Off-white | Appearance [1, 16]: Off-white | Content (%) [1, 16]: 98.03% | Total Impurities (%) [1, 16]: 1.97% | change in total impurity ([1]; accelerated experiments): relatively small change | change of crystal form (XRPD detection) [1]: does not change | XPRD ([1]; Day 0 (initial)): Crystal form B | XPRD [1, 14]: Crystal form B | XPRD [1, 15]: Crystal form B | XPRD [1, 16]: Crystal form B | change in total impurity content ([1]; high temperature, high humidity): almost no change

O=C(O)[C@H]1C2CCC(CC2)[C@@H]1Nc1nc(-c2n[nH]c3ncc(F)cc23)nc(C2CC2)c1F [crystal form H]
Appearance [1, 4]: Off-white solid | Appearance [1, 17]: Off-white solid | Total Impurities (%) [1, 17]: 2.0% | Appearance ([1]; Day 0 (initial)): Off-white solid | Total Impurities (%) ([1]; Day 0 (initial)): 1.8% | Appearance [1, 6]: Off-white solid | Appearance [1, 18]: Off-white solid | Total Impurities (%) [1, 18]: 1.9% | Appearance [1, 8]: Off-white solid | Appearance [1, 19]: Off-white solid | Total Impurities (%) [1, 19]: 2.0% | Appearance [1, 10]: Off-white solid | Appearance [1, 11]: Yellowish solid | Total Impurities (%) [1, 11]: 1.9% | change of crystal form (XRPD detection) [1]: does not change | XPRD [1, 17]: Crystal form H | XPRD ([1]; Day 0 (initial)): Crystal form H | XPRD [1, 18]: Crystal form H | XPRD [1, 19]: Crystal form H | XPRD [1, 11]: Crystal form H | change in total impurity content [1, 12]: almost no change

O=C(O)[C@H]1C2CCC(CC2)[C@@H]1Nc1nc(-c2n[nH]c3ncc(F)cc23)nc(C2CC2)c1F (single isomer, unassigned) [crystal form A]
Appearance [1, 4]: Off-white solid | Appearance [1, 20]: Off-white solid | Content (%) [1, 20]: 98.36% | Total Impurities (%) [1, 20]: 1.64% | Appearance ([1]; Day 0 (initial)): Off-white solid | Content (%) ([1]; Day 0 (initial)): 98.51% | Total Impurities (%) ([1]; Day 0 (initial)): 1.49% | Appearance [1, 6]: Off-white solid | Appearance [1, 14]: Off-white solid | Content (%) [1, 14]: 98.25% | Total Impurities (%) [1, 14]: 1.75% | Appearance [1, 8]: Off-white solid | Appearance [1, 15]: Off-white solid | Content (%) [1, 15]: 98.25% | Total Impurities (%) [1, 15]: 1.75% | Appearance [1, 10]: Off-white solid | Appearance [1, 16]: Off-white solid | Content (%) [1, 16]: 96.89% | Total Impurities (%) [1, 16]: 3.11% | change of crystal form (XRPD detection) [1]: does not change | XPRD [1, 20]: Crystal form A | XPRD ([1]; Day 0 (initial)): Crystal form A | XPRD [1, 14]: Crystal form A | XPRD [1, 15]: Crystal form A | XPRD [1, 16]: Crystal form A | change in total impurity content [1, 13]: relatively small change

O=C(O)[C@H]1C2CCC(CC2)[C@@H]1Nc1nc(-c2n[nH]c3ncc(F)cc23)nc(C2CC2)c1F [Compound 1]
EC50 ([2]; 120 h, MDCK cells, influenza virus A/Weiss/43 (H1N1), 5 days, CCK8 cell viability): 0.013 nM | effect in the experiment of inhibiting influenza virus replication at a cell level ([2]; result in words): positive effect | Rate of Weight Loss (Day 9) ([3]; Day 9): 4.8% | Survival Rate (%) ([3]; observed to Day 14): 100%

O=C(O)[C@H]1C2CCC(CC2)[C@@H]1Nc1nc(-c2n[nH]c3ncc(F)cc23)nc(C2CC2)c1F [crystal form G]
Appearance [1, 4]: Off-white solid | Appearance [1, 17]: Off-white solid | Total Impurities (%) [1, 17]: 0.35% | Appearance ([1]; Day 0 (initial)): Off-white solid | Total Impurities (%) ([1]; Day 0 (initial)): 0.35% | Appearance [1, 6]: Off-white solid | Appearance [1, 18]: Off-white solid | Total Impurities (%) [1, 18]: 0.33% | Appearance [1, 8]: Off-white solid | Appearance [1, 19]: Off-white solid | Total Impurities (%) [1, 19]: 0.42% | Appearance [1, 10]: Off-white solid | Appearance [1, 11]: Yellowish solid | Total Impurities (%) [1, 11]: 0.54% | change of crystal form (XRPD detection) [1]: does not change | XPRD [1, 17]: Crystal form G | XPRD ([1]; Day 0 (initial)): Crystal form G | XPRD [1, 18]: Crystal form G | XPRD [1, 19]: Crystal form G | XPRD [1, 11]: Crystal form G | change in total impurity content ([1]; high humidity and accelerated experiments): almost no change | change in total impurity content ([1]; high temperature): relatively small change
